This test deals with Recombinant human cathepsin A. Briefly: Cathepsin A inhibitory activity (Bodipy FL-bradykinin substrate, microfluidic capillary electrophoresis). The format is biochemical. To be noted: read-out: CATH A IC50. As to the method:
Pharmacological Tests a) Cathepsin a Inhibitory Activity
Recombinant human cathepsin A (residues 29-480, with a C-terminal 10-His tag; R&D Systems, #1049-SE) was proteolytically activated with recombinant human cathepsin L (R&D Systems, #952-CY). Briefly, cathepsin A was incubated at 10 μg/ml with cathepsin L at 1 μg/ml in activation buffer (25 mM 2-(morpholin-4-yl)-ethanesulfonic acid (MES), pH 6.0, containing 5 mM dithiothreitol (DTT)) for 15 min at 37° C.
The activated cathepsin A was diluted in assay buffer (25 mM MES, pH 5.5, containing 5 mM DTT) and mixed with the test compound (dissolved in assay buffer containing (v/v) 3% DMSO) or, in the control experiments, with the vehicle in a multiple assay plate. After incubation for 15 min at room temperature, as substrate then bradykinin carrying an N-terminal ®Bodipy FL (4,4-difluoro-5,7-dimethyl-4-bora-3a,4a-diaza-s-indacene-3-propionyl) label (JPT Peptide Technologies GmbH; dissolved in assay buffer) was added to the mixture. The final concentration of cathepsin A was 833 ng/ml and the final concentration of labeled bradykinin 2 μM. After incubation for 15 min at room temperature the reaction was stopped by the addition of stop buffer (130 mM 2-(4-(2-hydroxy-ethyl)-piperazin-1-yl)-ethanesulfonic acid, pH 7.4, containing (v/v) 0.013% ®Triton X-100, 0.13% Coating Reagent 3 (Caliper Life Sciences), 6.5% DMSO and 20 μM ebelactone B (Sigma, # E0886)).
Uncleaved substrate and product were then separated by a microfluidic capillary electrophoresis on a LabChip® 3000 Drug Discovery System (12-Sipper-Chip; Caliper Life Sciences) and quantified by determination of the respective peak areas. Substrate turnover was calculated by dividing product peak area by the sum of substrate and product peak areas, and the enzyme activity and the inhibitory effect of the test compound thus quantified.

Each structure is given as a SMILES string.

As for `COc1ccc(OC)c(-c2cc(Cl)cc(C(CC(=O)O)c3ncc(C)s3)c2)c1` (stereo not shown) [compound 76], the IC50 came out at 0.028 µM.

In the case of `COc1ccc(CO)cc1-c1cc(Cl)cc(C(CC(=O)O)c2ncc(C)s2)c1` (stereo not shown) [compound 77], the IC50 is 0.029 µM.

As for `COc1ccc(F)c(F)c1-c1cc(Cl)cc(C(CC(=O)O)c2ncc(C)s2)c1` (stereo not shown) [compound 78], the IC50 was 0.037 µM.

As for `COc1ccc(F)cc1-c1cc(Cl)cc(C(CC(=O)O)c2ncc(C)s2)c1` (stereo not shown) [compound 79], the IC50 turned out to be 0.038 µM.

As to `CCOc1ccccc1-c1cc(Cl)cc(C(CC(=O)O)c2ncc(C)s2)c1` (stereo not shown) [compound 80], the IC50 amounted to 0.047 µM.

With `COc1ccc(C)cc1-c1cc(Cl)cc(C(CC(=O)O)c2ncc(C)s2)c1` (stereo not shown) [compound 81], the IC50 came to 0.052 µM.

For `COc1cccc(CO)c1-c1cc(Cl)cc(C(CC(=O)O)c2ncc(C)s2)c1` (stereo not shown) [compound 82], the IC50 came to 0.052 µM.

`COc1ccc(-c2cc(Cl)cc(C(CC(=O)O)c3ncc(C)s3)c2)c(OC)c1` (stereo not shown) [compound 83]: the IC50 was found to be 0.053 µM.

Turning to `COc1cccc(Cl)c1-c1cc(Cl)cc(C(CC(=O)O)c2ncc(C)s2)c1` (stereo not shown) [compound 84], the IC50 is 0.053 µM.

Regarding `COc1ccc(C(C)(C)C)cc1-c1cc(Cl)cc(C(CC(=O)O)c2ncc(C)s2)c1` (stereo not shown) [compound 85], the IC50 came to 0.055 µM.

In the case of `CCOc1ccc(C)cc1-c1cc(Cl)cc(C(CC(=O)O)c2ncc(C)s2)c1` (stereo not shown) [compound 86], the IC50 worked out at 0.065 µM.

Turning to `COc1ccc(C(C)C)cc1-c1cc(Cl)cc(C(CC(=O)O)c2ncc(C)s2)c1` (stereo not shown) [compound 87], the IC50 stood at 0.093 µM.

In the case of `COc1cccc(C#N)c1-c1cc(Cl)cc(C(CC(=O)O)c2ncc(C)s2)c1` (stereo not shown) [compound 88], the IC50 worked out at 0.103 µM.

Turning to `COc1cc(C(N)=O)ccc1-c1cc(Cl)cc(C(CC(=O)O)c2ncc(C)s2)c1` (stereo not shown) [compound 89], the IC50 came to 0.118 µM.

Regarding `COc1cc(F)ccc1-c1cc(Cl)cc(C(CC(=O)O)c2ncc(C)s2)c1` (stereo not shown) [compound 90], the IC50 was found to be 0.119 µM.

Regarding `COc1c(F)cc(F)cc1-c1cc(Cl)cc(C(CC(=O)O)c2ncc(C)s2)c1` (stereo not shown) [compound 91], the half-inhibitory concentration (IC50) is 0.131 µM.

As to `COc1c(Cl)cccc1-c1cc(Cl)cc(C(CC(=O)O)c2ncc(C)s2)c1` (stereo not shown) [compound 92], the IC50 was found to be 0.134 µM.

For the molecule `COc1c(C)cccc1-c1cc(Cl)cc(C(CC(=O)O)c2ncc(C)s2)c1` (stereo not shown) [compound 93], the IC50 was 0.164 µM.

Take `COc1ccc(OC(F)(F)F)cc1-c1cc(Cl)cc(C(CC(=O)O)c2ncc(C)s2)c1` (stereo not shown) [compound 94]: the half-inhibitory concentration (IC50) came out at 0.165 µM.

For `Cc1cnc(C(CC(=O)O)c2cc(Cl)cc(-c3ccccc3OC(F)(F)F)c2)s1` (stereo not shown) [compound 95], the IC50 stood at 0.221 µM.

With `COc1cc(C)cc(OC)c1-c1cc(F)cc(C(CC(=O)O)c2ncc(C)s2)c1` (stereo not shown) [compound 99], the IC50 amounted to 0.028 µM.

Consider `COc1ccc(C)cc1-c1cc(F)cc(C(CC(=O)O)c2ncc(C)s2)c1` (stereo not shown) [compound 100], for which the IC50 was 0.052 µM.

For `COc1cccc(F)c1-c1cc(F)cc(C(CC(=O)O)c2ncc(C)s2)c1` (stereo not shown) [compound 101], the 50% inhibitory concentration (IC50) came to 0.056 µM.

`COc1cccc(Cl)c1-c1cc(F)cc(C(CC(=O)O)c2ncc(C)s2)c1` (stereo not shown) [compound 105]: the half-inhibitory concentration (IC50) was found to be 0.096 µM.

Regarding `COc1ccc(C(C)C)cc1-c1cccc([C@H](CC(=O)O)c2nnc(C)o2)c1` [compound 108], the IC50 was 6.26 µM.

For `COc1ccccc1-c1cc(F)cc(C(CC(=O)O)c2ncc(C)s2)c1` (stereo not shown) [compound 110], the IC50 is 0.116 µM.

`COc1ccc(OC)c(-c2cc(F)cc(C(CC(=O)O)c3ncc(C)s3)c2)c1` (stereo not shown) [compound 112]: the IC50 came out at 0.122 µM.

For the molecule `COc1ccc(C(C)(C)C)cc1-c1cc(F)cc(C(CC(=O)O)c2ncc(C)s2)c1` (stereo not shown) [compound 113], the half-inhibitory concentration (IC50) was 0.124 µM.

In the case of `CCOc1ccc(C)cc1-c1cc(F)cc(C(CC(=O)O)c2ncco2)c1` (stereo not shown) [compound 117], the IC50 worked out at 0.155 µM.

`COc1ccc(C(C)C)cc1-c1cc(F)cc(C(CC(=O)O)c2ncc(C)s2)c1` (stereo not shown) [compound 119]: the IC50 turned out to be 0.195 µM.

As to `COc1ccc(-c2cc(F)cc(C(CC(=O)O)c3ncc(C)s3)c2)c(OC)c1` (stereo not shown) [compound 120], the IC50 was determined as 0.199 µM.

For `COc1ccc(OC(F)(F)F)cc1-c1cc(F)cc(C(CC(=O)O)c2ncco2)c1` (stereo not shown) [compound 122], the IC50 is 0.222 µM.

As to `COc1cc(F)ccc1-c1cc(F)cc(C(CC(=O)O)c2ncc(C)s2)c1` (stereo not shown) [compound 123], the 50% inhibitory concentration (IC50) came out at 0.246 µM.

Regarding `COc1ccc(OC(F)(F)F)cc1-c1cc(F)cc(C(CC(=O)O)c2ncc(C)s2)c1` (stereo not shown) [compound 124], the IC50 is 0.275 µM.

For `COc1c(C)cccc1-c1cc(F)cc(C(CC(=O)O)c2ncc(C)s2)c1` (stereo not shown) [compound 128], the IC50 was found to be 0.41 µM.

With `COc1c(F)cc(F)cc1-c1cc(F)cc(C(CC(=O)O)c2ncco2)c1` (stereo not shown) [compound 129], the IC50 came out at 0.457 µM.

Regarding `O=C(O)CC(c1cc(F)cc(-c2ccccc2OC(F)(F)F)c1)c1ncco1` (stereo not shown) [compound 130], the half-inhibitory concentration (IC50) was 0.466 µM.

For `COc1cccc(OC)c1-c1cccc(C(CC(=O)O)c2nnc(C)o2)c1` (stereo not shown) [compound 135], the IC50 was determined as 0.017 µM.

Regarding `COc1ccc(C)cc1-c1cccc(C(CC(=O)O)c2nnc(C)o2)c1` (stereo not shown) [compound 136], the IC50 was 0.024 µM.

Turning to `COc1cc(C)cc(OC)c1-c1cccc(C(CC(=O)O)c2nnc(C)o2)c1` (stereo not shown) [compound 137], the IC50 is 0.024 µM.

With `COc1ccc(OC)c(-c2cccc(C(CC(=O)O)c3nnc(C)o3)c2)c1` (stereo not shown) [compound 138], the IC50 was 0.041 µM.

On to `COc1ccc(F)cc1-c1cccc(C(CC(=O)O)c2nnc(C)o2)c1` (stereo not shown) [compound 139], for which the IC50 came out at 0.06 µM.

Turning to `COc1ccccc1-c1cccc(C(CC(=O)O)c2nnc(C)o2)c1` (stereo not shown) [compound 140], the half-inhibitory concentration (IC50) amounted to 0.061 µM.

Turning to `COc1ccc(CO)cc1-c1cccc(C(CC(=O)O)c2nnc(C)o2)c1` (stereo not shown) [compound 141], the IC50 is 0.072 µM.

In the case of `COc1cccc(Cl)c1-c1cccc(C(CC(=O)O)c2nnc(C)o2)c1` (stereo not shown) [compound 142], the IC50 was found to be 0.08 µM.

With `COc1ccc(OC(F)(F)F)cc1-c1cccc(C(CC(=O)O)c2nnc(C)o2)c1` (stereo not shown) [compound 143], the concentration for half-maximal inhibition (IC50) was determined as 0.085 µM.

Turning to `CCOc1ccccc1-c1cccc(C(CC(=O)O)c2nnc(C)o2)c1` (stereo not shown) [compound 144], the half-maximal inhibitory concentration (IC50) was determined as 0.091 µM.

In the case of `COc1cccc(F)c1-c1cccc(C(CC(=O)O)c2nnc(C)o2)c1` (stereo not shown) [compound 145], the IC50 was 0.116 µM.

Take `COc1cc(F)ccc1-c1cccc(C(CC(=O)O)c2nnc(C)o2)c1` (stereo not shown) [compound 146]: the IC50 worked out at 0.129 µM.

`COc1ccc(-c2cccc(C(CC(=O)O)c3nnc(C)o3)c2)c(OC)c1` (stereo not shown) [compound 147]: the IC50 came out at 0.137 µM.

On to `Cc1nnc(C(CC(=O)O)c2cccc(-c3ccccc3OC(F)(F)F)c2)o1` (stereo not shown) [compound 148], for which the IC50 was 0.243 µM.

`COc1ccc(S(C)(=O)=O)cc1-c1cccc(C(CC(=O)O)c2nnc(C)o2)c1` (stereo not shown) [compound 149]: the 50% inhibitory concentration (IC50) turned out to be 0.265 µM.

Take `COc1cccc(CO)c1-c1cccc(C(CC(=O)O)c2nnc(C)o2)c1` (stereo not shown) [compound 150]: the IC50 worked out at 0.325 µM.

For `COc1c(C)cccc1-c1cccc(C(CC(=O)O)c2nnc(C)o2)c1` (stereo not shown) [compound 151], the 50% inhibitory concentration (IC50) turned out to be 0.571 µM.

In the case of `COc1cccc(C#N)c1-c1cccc(C(CC(=O)O)c2nnc(C)o2)c1` (stereo not shown) [compound 152], the half-inhibitory concentration (IC50) is 0.652 µM.

Take `COc1ccc(C(C)C)cc1-c1cc(Cl)cc(C(CC(=O)O)c2nnc(C)o2)c1` (stereo not shown) [compound 153]: the IC50 is 0.025 µM.

Consider `COc1cccc(OC)c1-c1cc(Cl)cc(C(CC(=O)O)c2nnc(C)o2)c1` (stereo not shown) [compound 154], for which the IC50 was found to be 0.005 µM.

Consider `COc1cc(C)cc(OC)c1-c1cc(Cl)cc(C(CC(=O)O)c2nnc(C)o2)c1` (stereo not shown) [compound 155], for which the IC50 is 0.008 µM.

As for `COc1cccc(C#N)c1-c1cc(Cl)cc(C(CC(=O)O)c2nnc(C)o2)c1` (stereo not shown) [compound 156], the IC50 came out at 0.104 µM.

For the molecule `COc1ccc2c(c1-c1cc(Cl)cc(C(CC(=O)O)c3nnc(C)o3)c1)OC(C)(C)C2` (stereo not shown) [compound 157], the concentration for half-maximal inhibition (IC50) amounted to 0.017 µM.

For the molecule `Cc1nnc(C(CC(=O)O)c2cc(Cl)cc(-c3ccccc3OC(F)(F)F)c2)o1` (stereo not shown) [compound 158], the IC50 was 0.089 µM.

Consider `COc1ccc(C(C)C)cc1-c1cc(F)cc(C(CC(=O)O)c2nnc(C)o2)c1` (stereo not shown) [compound 160], for which the IC50 came to 0.044 µM.

With `COc1cccc(C#N)c1-c1cc(F)cc(C(CC(=O)O)c2nnc(C)o2)c1` (stereo not shown) [compound 163], the IC50 is 0.446 µM.

On to `Cc1nnc(C(CC(=O)O)c2cc(F)cc(-c3ccccc3OC(F)(F)F)c2)o1` (stereo not shown) [compound 165], for which the IC50 was 0.231 µM.

Regarding `COc1ccc(Cl)cc1-c1cc(F)cc(C(CC(=O)O)c2nnc(C)o2)c1` (stereo not shown) [compound 166], the IC50 was 0.089 µM.

`COc1cccc(CO)c1-c1cc(F)cc(C(CC(=O)O)c2nnc(C)o2)c1` (stereo not shown) [compound 167]: the IC50 amounted to 0.4 µM.

Take `COc1ccc(OC(F)(F)F)cc1-c1cc(F)cc(C(CC(=O)O)c2nnc(C)o2)c1` (stereo not shown) [compound 168]: the IC50 turned out to be 0.165 µM.

What is called IC50 is the concentration that gives 50% inhibition.
